Columns and labels:
[1] = tested on: MM.1S cells; assay: Tumor cell proliferation IC50 (CCK-8), MM.1S; settings: Homo sapiens, MM1.S, 72 h, read-out: IC50 for inhibiting the proliferation of tumor cells, MM.1S;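 note: viability of cultured cells read by CCK-8 reagent after compound exposure, growth inhibition curves fitted to derive IC50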
[2] = tested on: Mino cells; assay: Tumor cell proliferation IC50 (CCK-8), Mino; settings: Homo sapiens, 72 h, read-out: IC50 for inhibiting the proliferation of tumor cells, Mino;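 note: cell viability assessed with CCK-8 reagent after compound exposure, IC50 derived from plotted growth inhibition curves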
[3] = molecular target: IKZF3 protein (Homo sapiens (Human), UniProt Q96SW2+Q9UKT9); assay: Western-blot assay of substrate protein degradation in hPBMC, IKZF3; type: cell-based; settings: hPBMC cells, compound 500 nM, 24 hours, Western blot
Chain of IKZF3 protein (Q9UKT9 whole entry): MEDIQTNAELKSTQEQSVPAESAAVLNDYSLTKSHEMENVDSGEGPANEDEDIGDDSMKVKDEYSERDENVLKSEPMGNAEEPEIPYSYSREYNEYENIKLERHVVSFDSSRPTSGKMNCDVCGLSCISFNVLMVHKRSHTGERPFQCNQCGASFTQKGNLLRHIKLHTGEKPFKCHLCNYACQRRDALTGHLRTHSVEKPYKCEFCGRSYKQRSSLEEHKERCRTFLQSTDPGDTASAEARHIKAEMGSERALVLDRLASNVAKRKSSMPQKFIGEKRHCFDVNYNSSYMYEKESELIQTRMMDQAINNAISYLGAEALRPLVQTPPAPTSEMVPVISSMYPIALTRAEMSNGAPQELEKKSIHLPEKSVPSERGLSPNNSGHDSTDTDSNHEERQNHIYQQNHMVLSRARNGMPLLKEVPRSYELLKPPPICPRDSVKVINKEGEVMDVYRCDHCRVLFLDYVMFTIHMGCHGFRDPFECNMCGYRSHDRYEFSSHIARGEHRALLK
Chain of IKZF3 protein (Q96SW2 whole entry): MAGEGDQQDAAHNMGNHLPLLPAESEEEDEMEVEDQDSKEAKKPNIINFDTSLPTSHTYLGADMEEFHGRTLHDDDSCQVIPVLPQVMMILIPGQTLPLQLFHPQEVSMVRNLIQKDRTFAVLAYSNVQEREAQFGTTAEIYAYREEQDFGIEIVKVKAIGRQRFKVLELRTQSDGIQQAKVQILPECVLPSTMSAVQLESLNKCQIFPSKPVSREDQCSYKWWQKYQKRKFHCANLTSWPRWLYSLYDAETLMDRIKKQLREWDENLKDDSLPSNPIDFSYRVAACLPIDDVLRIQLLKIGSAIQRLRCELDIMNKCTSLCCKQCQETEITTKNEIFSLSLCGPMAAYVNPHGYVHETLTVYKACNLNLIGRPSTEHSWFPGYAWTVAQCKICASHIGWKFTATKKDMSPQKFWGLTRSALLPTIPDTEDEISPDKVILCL
Chain of IKZF3 protein (Q16531 whole entry partner): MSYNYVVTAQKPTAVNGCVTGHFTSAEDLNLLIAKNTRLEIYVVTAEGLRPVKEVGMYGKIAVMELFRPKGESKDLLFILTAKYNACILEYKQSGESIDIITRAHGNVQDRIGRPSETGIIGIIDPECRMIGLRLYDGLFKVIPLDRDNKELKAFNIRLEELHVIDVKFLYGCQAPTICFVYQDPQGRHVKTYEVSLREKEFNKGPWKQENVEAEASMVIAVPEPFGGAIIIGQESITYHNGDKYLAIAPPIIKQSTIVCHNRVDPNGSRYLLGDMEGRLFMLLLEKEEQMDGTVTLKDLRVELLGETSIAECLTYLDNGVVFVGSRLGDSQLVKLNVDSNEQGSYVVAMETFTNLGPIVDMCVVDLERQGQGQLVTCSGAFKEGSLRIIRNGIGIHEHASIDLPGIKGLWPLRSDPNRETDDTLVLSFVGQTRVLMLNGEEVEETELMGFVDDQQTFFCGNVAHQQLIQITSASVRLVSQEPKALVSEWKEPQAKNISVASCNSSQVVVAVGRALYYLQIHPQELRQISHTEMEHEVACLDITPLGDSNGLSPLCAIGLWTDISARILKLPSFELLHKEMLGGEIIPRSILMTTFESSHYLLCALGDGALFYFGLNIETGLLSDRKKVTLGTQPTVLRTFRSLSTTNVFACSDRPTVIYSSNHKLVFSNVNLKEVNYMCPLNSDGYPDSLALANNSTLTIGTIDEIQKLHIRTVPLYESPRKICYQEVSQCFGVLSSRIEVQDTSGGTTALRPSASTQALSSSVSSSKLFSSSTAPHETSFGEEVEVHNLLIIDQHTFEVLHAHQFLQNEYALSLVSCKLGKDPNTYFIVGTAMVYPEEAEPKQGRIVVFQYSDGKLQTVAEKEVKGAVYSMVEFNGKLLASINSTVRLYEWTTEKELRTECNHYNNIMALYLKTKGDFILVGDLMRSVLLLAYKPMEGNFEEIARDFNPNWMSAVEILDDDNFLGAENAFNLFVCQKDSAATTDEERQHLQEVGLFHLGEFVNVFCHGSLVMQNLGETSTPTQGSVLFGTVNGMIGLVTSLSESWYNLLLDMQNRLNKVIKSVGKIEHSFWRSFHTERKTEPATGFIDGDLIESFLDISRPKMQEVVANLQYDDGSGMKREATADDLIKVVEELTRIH

[4] = molecular target: GSPT1 protein (Homo sapiens (Human), UniProt P15170+Q96SW2); assay: Western-blot assay of substrate protein degradation in hPBMC, GSPT1; type: cell-based; settings: hPBMC cells, compound 500 nM, 24 hours, Western blot
Chain of GSPT1 protein (P15170 whole entry): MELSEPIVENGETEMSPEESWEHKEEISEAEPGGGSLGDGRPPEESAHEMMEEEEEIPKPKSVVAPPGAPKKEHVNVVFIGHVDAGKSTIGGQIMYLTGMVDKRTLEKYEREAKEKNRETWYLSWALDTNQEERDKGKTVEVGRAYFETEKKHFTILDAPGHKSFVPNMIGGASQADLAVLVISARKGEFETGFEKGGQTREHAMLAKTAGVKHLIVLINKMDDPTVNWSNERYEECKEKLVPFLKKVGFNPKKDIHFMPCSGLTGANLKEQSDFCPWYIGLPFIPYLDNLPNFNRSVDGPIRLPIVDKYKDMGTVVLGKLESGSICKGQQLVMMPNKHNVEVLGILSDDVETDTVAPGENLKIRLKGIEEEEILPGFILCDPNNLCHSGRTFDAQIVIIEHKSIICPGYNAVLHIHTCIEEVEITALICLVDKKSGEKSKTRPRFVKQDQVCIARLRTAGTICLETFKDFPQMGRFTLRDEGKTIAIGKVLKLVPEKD
Chain of GSPT1 protein (Q96SW2 whole entry): as the sequence (Q96SW2 whole entry) above
Chain of GSPT1 protein (Q16531 whole entry partner): as the sequence (Q16531 whole entry partner) above

[5] = molecular target: IKZF1 protein (Homo sapiens (Human), UniProt Q13422+Q96SW2); assay: Western-blot assay of substrate protein degradation in hPBMC, IKZF1; type: cell-based; settings: hPBMC cells, compound 500 nM, 24 hours, Western blot
Chain of IKZF1 protein (Q13422 whole entry): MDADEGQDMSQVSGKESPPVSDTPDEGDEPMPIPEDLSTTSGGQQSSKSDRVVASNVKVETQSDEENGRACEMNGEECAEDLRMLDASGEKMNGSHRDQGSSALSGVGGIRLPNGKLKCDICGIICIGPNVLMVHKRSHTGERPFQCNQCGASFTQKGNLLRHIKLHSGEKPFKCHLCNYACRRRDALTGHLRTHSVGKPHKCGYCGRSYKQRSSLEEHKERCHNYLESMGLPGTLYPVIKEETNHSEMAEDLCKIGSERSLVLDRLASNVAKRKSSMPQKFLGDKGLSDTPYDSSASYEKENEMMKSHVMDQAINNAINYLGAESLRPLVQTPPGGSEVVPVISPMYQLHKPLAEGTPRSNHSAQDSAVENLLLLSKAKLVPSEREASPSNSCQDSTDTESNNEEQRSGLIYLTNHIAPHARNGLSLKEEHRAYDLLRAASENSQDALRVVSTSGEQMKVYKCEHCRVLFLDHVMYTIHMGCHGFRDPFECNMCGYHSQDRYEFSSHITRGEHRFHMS
Chain of IKZF1 protein (Q96SW2 whole entry): as the sequence (Q96SW2 whole entry) above
Chain of IKZF1 protein (Q16531 whole entry partner): as the sequence (Q16531 whole entry partner) above

[6] = tested on: Daudi cells; assay: Tumor cell proliferation IC50 (CCK-8), Daudi; settings: Homo sapiens, read-out: IC50 for inhibiting the proliferation of tumor cells, Daudi;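 note: cell viability read with CCK-8 reagent after compound exposure of Daudi cells, IC50 derived from plotted growth inhibition curves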
Description: The tumor cells used herein were cultured in a cell culture medium listed in table A at 37° C. in an incubator with 5% CO2.
After the cells were treated with the compounds of the present disclosure for a period of time, the cell viability detection reagent was added to the culture medium for cell viability assessment according to the instructions provided with the CCK-8 kit. […] The growth inhibition of the compounds of the present disclosure on cells was plotted by Prism Graphpad software, and the IC50 values of the compounds of the present disclosure were calculated therefrom.

[7] = tested on: CCRF-CEM cells; assay: Tumor cell proliferation IC50 (CCK-8), CCRF-CEM; settings: Homo sapiens, 96 h, read-out: IC50 for inhibiting the proliferation of tumor cells, CCRF-CEM;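 note: cell viability measured with CCK-8 reagent after compound treatment, IC50 taken from plotted growth inhibition curves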
[8] = molecular target: human Cereblon WT GST-tagged protein (Homo sapiens (Human), UniProt Q96SW2); assay: CRBN-binding affinity, HTRF (CEREBLON BINDING kit)
Chain of human Cereblon WT GST-tagged protein (Q96SW2 whole entry): as the sequence (Q96SW2 whole entry) above
How it was run: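 GST-tagged human WT Cereblon incubated with compound, then Thalidomide-Re tracer and anti-GST Eu antibody added. Displacement read by HTRF, reported as CRBN binding inhibition rate against blank control wells without protein.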

Row | IC50 [1] [nM] | IC50 [2] [nM] | IC50 [6] [nM] | IC50 [7] [nM] | IC50 [8] [nM] | SMILES | residual substrate protein level, IKZF3 [3] | residual substrate protein level, GSPT1 [4] | residual substrate protein level, IKZF1 [5]
1 | < 5 | < 5 | 5 to 10 | < 5 | 410 | O=C1CCC(N2Cc3cc(CN4CCN(Cc5ccccc5-c5cccs5)CC4)ccc3C2=O)C(=O)N1 (centres unmarked) [GT-05519, 3-(1-oxo-5-((4-(2-(thiophen-2-yl)benzyl)piperazin-1-yl)methyl)isoindolin-2-yl)piperidine-2,6-dione] | A (A represents a residual substrate protein level of <50%) | A (A represents a residual substrate protein level of <50%) | A (A represents a residual substrate protein level of <50%)
2 | < 5 | < 5 | 10 to 50 | < 5 | 1000 | CC1(C)CCC(CN2CCN(Cc3ccc4c(c3)CN(C3CCC(=O)NC3=O)C4=O)CC2)=C(c2cccs2)C1 (centres unmarked) [GT-05847, 3-(5-((4-((4,4-dimethyl-2-(thiophen-2-yl)cyclohex-1-en-1-yl)methyl)piperazin-1-yl)methyl)-1-oxoisoindolin-2-yl)piperidine-2,6-dione] | A (A represents a residual substrate protein level of <50%) | A (A represents a residual substrate protein level of <50%) | A (A represents a residual substrate protein level of <50%)
3 | < 5 | < 5 | 5 to 10 | < 5 | 560 | O=C1CCC(N2Cc3c(ccc(CN4CCN(Cc5ccccc5-c5ccc(F)cc5)CC4)c3F)C2=O)C(=O)N1 (centres unmarked) [GT-05602, 3-(4-fluoro-5-((4-((4′-fluoro-[1,1′-biphenyl]-2-yl)methyl)piperazin-1-yl)methyl)-1-oxoisoindolin-2-yl)piperidine-2,6-dione] | A (A represents a residual substrate protein level of <50%) | A (A represents a residual substrate protein level of <50%) | A (A represents a residual substrate protein level of <50%)
4 | 10 to 50 | 10 to 50 | 100 to 500 | 100 to 500 | 660 | O=C1CCC(N2Cc3cc(NC4CN(Cc5ccccc5-c5ccc(Cl)cc5)C4)ccc3C2=O)C(=O)N1 (centres unmarked) [GT-05382, 3-(5-((1-((4′-chloro-[1,1′-biphenyl]-2-yl)methyl)azetidin-3-yl)amino)-1-oxoisoindolin-2-yl)piperidine-2,6-dione] | A (A represents a residual substrate protein level of <50%) | A (A represents a residual substrate protein level of <50%) | A (A represents a residual substrate protein level of <50%)
5 | 5 to 10 | 5 to 10 | 50 to 100 | 5 to 10 | 660 | Cc1ccc(C2=C(CN3CCN(Cc4ccc5c(c4)CN(C4CCC(=O)NC4=O)C5=O)CC3)CCC(C)(C)C2)cc1 (centres unmarked) [GT-05792, 3-(1-oxo-5-((4-((4′,5,5-trimethyl-3,4,5,6-tetrahydro-[1,1′-biphenyl]-2-yl)methyl)piperazin-1-yl)methyl)isoindolin-2-yl)piperidine-2,6-dione] | – | – | –
6 | 10 to 50 | 10 to 50 | 100 to 500 | 10 to 50 | 520 | O=C1CCC(N2Cc3cc(CN4CCN(C(=O)c5ccccc5-c5ccc(Cl)cc5)CC4C(F)(F)F)ccc3C2=O)C(=O)N1 (centres unmarked) [GT-05789, 3-(5-((4-(4′-chloro-[1,1′-biphenyl]-2-carbonyl)-2-(trifluoromethyl)piperazin-1-yl)methyl)-1-oxoisoindolin-2-yl)piperidine-2,6-dione] | B (B represents a residual substrate protein level of >50%) | A (A represents a residual substrate protein level of <50%) | B (B represents a residual substrate protein level of >50%)
7 | 5 to 10 | 5 to 10 | 50 to 100 | 5 to 10 | 430 | O=C1CCC(N2Cc3cc(CN4CCN(Cc5ccccc5-c5ccco5)CC4)ccc3C2=O)C(=O)N1 (centres unmarked) [GT-05779, 3-(5-((4-(2-(furan-2-yl)benzyl)piperazin-1-yl)methyl)-1-oxoisoindolin-2-yl)piperidine-2,6-dione] | A (A represents a residual substrate protein level of <50%) | A (A represents a residual substrate protein level of <50%) | A (A represents a residual substrate protein level of <50%)
8 | – | 500 to 1000 | 500 to 1000 | 500 to 1000 | – | O=C1CCC(N2C(=O)c3ccc(CN4CCN(Cc5ccc(-c6ccc(Cl)cc6)s5)CC4)cc3C2=O)C(=O)N1 (centres unmarked) [GT-05626, 5-((4-((5-(4-chlorophenyl)thiophen-2-yl)methyl)piperazin-1-yl)methyl)-2-(2,6-dioxopiperidin-3-yl)isoindoline-1,3-dione] | B (B represents a residual substrate protein level of >50%) | B (B represents a residual substrate protein level of >50%) | B (B represents a residual substrate protein level of >50%)
9 | 10 to 50 | 10 to 50 | 100 to 500 | 10 to 50 | 560 | CC1(C)CCC(C(=O)N2CC3(CN(Cc4ccc5c(c4)CN(C4CCC(=O)NC4=O)C5=O)C3)C2)=C(c2ccc(F)cc2)C1 (centres unmarked) [GT-05664, 3-(5-((6-(4′-fluoro-5,5-dimethyl-3,4,5,6-tetrahydro-[1,1′-biphenyl]-2-carbonyl)-2,6-diazaspiro[3.3]heptan-2-yl)methyl)-1-oxoisoindolin-2-yl)piperidine-2,6-dione] | A (A represents a residual substrate protein level of <50%) | A (A represents a residual substrate protein level of <50%) | A (A represents a residual substrate protein level of <50%)
10 | < 5 | 5 to 10 | 10 to 50 | 5 to 10 | 560 | O=C1CCC(N2Cc3cc(CN4CCN(Cc5ccccc5-c5ccc(Cl)cn5)CC4)ccc3C2=O)C(=O)N1 (centres unmarked) [GT-05860, 3-(5-((4-(2-(5-chloropyridin-2-yl)benzyl)piperazin-1-yl)methyl)-1-oxoisoindolin-2-yl)piperidine-2,6-dione] | A (A represents a residual substrate protein level of <50%) | A (A represents a residual substrate protein level of <50%) | A (A represents a residual substrate protein level of <50%)
11 | 5 to 10 | 10 to 50 | 50 to 100 | 5 to 10 | 750 | Cn1cccc1-c1ccccc1CN1CCN(Cc2ccc3c(c2)CN(C2CCC(=O)NC2=O)C3=O)CC1 (centres unmarked) [GT-05683, 3-(5-((4-(2-(1-methyl-1H-pyrrol-2-yl)benzyl)piperazin-1-yl)methyl)-1-oxoisoindolin-2-yl)piperidine-2,6-dione] | – | – | –
12 | < 5 | < 5 | 10 to 50 | < 5 | 620 | O=C1CCC(N2Cc3cc(NC4CCN(C(=O)c5ccccc5-c5ccc(Cl)cc5)CC4)ccc3C2=O)C(=O)N1 (centres unmarked) [GT-05784, 3-(5-((1-(4′-chloro-[1,1′-biphenyl]-2-carbonyl)piperidin-4-yl)amino)-1-oxoisoindolin-2-yl)piperidine-2,6-dione] | – | – | –
13 | < 5 | < 5 | 5 to 10 | 2.5 | 940 | O=C1CCC(N2Cc3cc(CN4CCN(Cc5ccccc5-c5ccc(F)cc5)CC4)c(F)cc3C2=O)C(=O)N1 (centres unmarked) [GT-05603, 3-(6-fluoro-5-((4-((4′-fluoro-[1,1′-biphenyl]-2-yl)methyl)piperazin-1-yl)methyl)-1-oxoisoindolin-2-yl)piperidine-2,6-dione] | A (A represents a residual substrate protein level of <50%) | A (A represents a residual substrate protein level of <50%) | A (A represents a residual substrate protein level of <50%)
14 | < 5 | < 5 | 5 to 10 | < 5 | 560 | O=C1CCC(N2Cc3cc(CN4CCN(Cc5ncccc5-c5ccc(Cl)cc5)CC4)ccc3C2=O)C(=O)N1 (centres unmarked) [GT-05778, 3-(5-((4-((3-(4-chlorophenyl)pyridin-2-yl)methyl)piperazin-1-yl)methyl)-1-oxoisoindolin-2-yl)piperidine-2,6-dione] | A (A represents a residual substrate protein level of <50%) | A (A represents a residual substrate protein level of <50%) | A (A represents a residual substrate protein level of <50%)

From patent US20260028326A1, “COMPOUND BASED ON ISOINDOLINE-SUBSTITUTED GLUTARIMIDE BACKBONE AND USE THEREOF” (GLUETACS THERAPEUTICS (SHANGHAI) CO., LTD., priority 2022, published 2026)
